What all share (assay type): biochemical
The target of assay [1] is T1, COX-1 (Mus musculus, UniProt P22437).
T1 construct: A 2.0 kb fragment containing the coding region; made in house; host or cells: SF9 insect cells (baculovirus, pVL1393)
T1 sequence (P22437 27-602): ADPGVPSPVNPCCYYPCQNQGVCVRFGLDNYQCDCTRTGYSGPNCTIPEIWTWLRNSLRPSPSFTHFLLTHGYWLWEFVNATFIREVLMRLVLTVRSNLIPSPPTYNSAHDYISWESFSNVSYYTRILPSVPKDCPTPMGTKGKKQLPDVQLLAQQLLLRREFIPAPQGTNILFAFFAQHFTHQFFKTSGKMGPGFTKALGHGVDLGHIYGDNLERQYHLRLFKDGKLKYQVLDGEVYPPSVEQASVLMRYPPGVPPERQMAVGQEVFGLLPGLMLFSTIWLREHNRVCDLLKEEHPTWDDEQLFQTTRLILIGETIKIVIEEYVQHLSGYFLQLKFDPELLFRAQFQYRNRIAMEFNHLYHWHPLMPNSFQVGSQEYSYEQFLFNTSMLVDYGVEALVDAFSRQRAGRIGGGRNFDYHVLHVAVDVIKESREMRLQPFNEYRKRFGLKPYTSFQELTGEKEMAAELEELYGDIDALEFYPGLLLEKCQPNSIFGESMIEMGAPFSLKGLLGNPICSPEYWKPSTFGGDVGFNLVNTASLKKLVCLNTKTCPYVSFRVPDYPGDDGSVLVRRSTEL
Kind of assay: COX-1 activity in vitro, recombinant murine enzyme (PGE2 ELISA). Particulars: murine (m); 10 μM arachidonic acid, 10-20 min pre-incubation; read-out: COX-1 ID50. As to the method: (§1) The COX-2 inhibition activity of the compounds of this invention illustrated in the Examples was determined by the following methods.
(§2) Recombinant COX-1 and COX-2 were prepared as described by Gierse et al, [J. Biochem., 305, 479-84 (1995)]. A 2.0 kb fragment containing the coding region of either human or murine COX-1 or human or murine COX-2 was cloned into a BamH1 site of the baculovirus transfer vector pVL1393 (Invitrogen) to generate the baculovirus transfer vectors for COX-1 and COX-2 in a manner similar to the method of D. R. O'Reilly et al (Baculovirus Expression Vectors: A Laboratory Manual (1992)). Recombinant baculoviruses were isolated by transfecting 4 μg of baculovirus transfer vector DNA into SF9 insect cells (2×10^8) along with 200 ng of linearized baculovirus plasmid DNA by the calcium phosphate method. See M. D. Summers and G. E. Smith, A Manual of Methods for Baculovirus Vectors and Insect Cell Culture Procedures, Texas Agric. Exp. Station Bull. 1555 (1987). Recombinant viruses were purified by three rounds of plaque purification and high titer (10^7 -10^8 pfu/ml) stocks of virus were prepared. For large scale production, SF9 insect cells were infected in 10 liter fermentors (0.5×10^6 /ml) with the recombinant baculovirus stock such that the multiplicity of infection was 0.1. After 72 hours the cells were centrifuged and the cell pellet homogenized in Tris/Sucrose (50 mM: 25%, pH 8.0) containing 1% 3-[(3-cholamidopropyl)dimethylammonio]-1-propanesulfonate (CHAPS). The homogenate was centrifuged at 10,000×G for 30 minutes, and the resultant supernatant was stored at -80° C. before being assayed for COX activity.
(§3) b. Assay for COX-1 and COX-2 activity COX activity was assayed as PGE2 formed/μg protein/time using an ELISA to detect the prostaglandin released. CHAPS-solubilized insect cell membranes containing the appropriate COX enzyme were incubated in a potassium phosphate buffer (50 mM, pH 8.0) containing epinephrine, phenol, and heme with the addition of arachidonic acid (10 μM). Compounds were pre-incubated with the enzyme for 10-20 minutes prior to the addition of arachidonic acid. Any reaction between the arachidonic acid and the enzyme was stopped after ten minutes at 37° C./room temperature by transferring 40 μl of reaction mix into 160 μl ELISA buffer and 25 μM indomethacin. The PGE2 formed was measured by standard ELISA technology (Cayman Chemical).
Background: In an ELISA, binding on a coated surface is turned into a signal by an enzyme label.

The target in assay [2] is T2, COX-2 (Mus musculus, UniProt Q05769).
T2 construct: A 2.0 kb fragment containing the coding region; made in house; host or cells: SF9 insect cells (baculovirus, pVL1393)
T2 sequence (Q05769 18-604): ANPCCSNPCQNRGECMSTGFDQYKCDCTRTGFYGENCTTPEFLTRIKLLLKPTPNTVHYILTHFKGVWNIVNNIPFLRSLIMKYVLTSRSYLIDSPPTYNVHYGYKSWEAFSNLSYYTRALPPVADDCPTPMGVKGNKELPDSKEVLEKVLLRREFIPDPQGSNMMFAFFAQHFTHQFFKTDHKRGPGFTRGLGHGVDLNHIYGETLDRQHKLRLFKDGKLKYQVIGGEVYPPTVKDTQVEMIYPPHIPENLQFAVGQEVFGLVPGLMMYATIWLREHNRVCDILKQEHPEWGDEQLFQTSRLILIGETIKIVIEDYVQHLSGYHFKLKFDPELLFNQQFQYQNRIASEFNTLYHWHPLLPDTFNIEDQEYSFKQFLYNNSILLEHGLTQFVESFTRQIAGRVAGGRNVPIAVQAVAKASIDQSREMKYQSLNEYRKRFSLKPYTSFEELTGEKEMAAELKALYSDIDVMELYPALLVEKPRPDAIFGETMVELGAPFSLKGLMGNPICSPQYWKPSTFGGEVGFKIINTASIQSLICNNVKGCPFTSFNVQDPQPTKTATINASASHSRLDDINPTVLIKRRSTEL
The assay can be described thus: COX-2 activity in vitro, recombinant murine enzyme (PGE2 ELISA). Particulars: murine (m); 10 μM arachidonic acid, 10-20 min pre-incubation; read-out: COX-2 ID50. As to the method: as §1, §2, §3

Assay [3] has as its target T3, COX-2 (Homo sapiens, UniProt P35354).
T3 construct: A 2.0 kb fragment containing the coding region; made in house; host or cells: SF9 insect cells (baculovirus, pVL1393)
T3 sequence (P35354 18-604): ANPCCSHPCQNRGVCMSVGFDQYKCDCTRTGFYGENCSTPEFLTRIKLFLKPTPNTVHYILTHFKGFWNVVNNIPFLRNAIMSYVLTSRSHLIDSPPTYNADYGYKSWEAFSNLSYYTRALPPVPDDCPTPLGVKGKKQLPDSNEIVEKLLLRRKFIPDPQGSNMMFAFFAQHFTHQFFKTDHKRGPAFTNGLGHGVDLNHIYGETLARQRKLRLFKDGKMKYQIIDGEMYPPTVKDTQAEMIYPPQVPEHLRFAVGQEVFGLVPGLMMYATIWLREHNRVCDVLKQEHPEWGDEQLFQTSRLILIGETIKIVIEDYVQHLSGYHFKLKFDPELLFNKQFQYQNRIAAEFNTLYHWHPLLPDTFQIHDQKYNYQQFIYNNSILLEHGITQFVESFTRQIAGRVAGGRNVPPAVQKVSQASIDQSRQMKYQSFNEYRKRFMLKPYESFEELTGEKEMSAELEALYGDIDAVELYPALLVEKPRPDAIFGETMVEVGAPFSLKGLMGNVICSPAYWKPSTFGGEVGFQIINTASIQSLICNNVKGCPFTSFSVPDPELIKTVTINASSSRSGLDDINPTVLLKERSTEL
The assay can be described thus: COX-2 activity in vitro, recombinant human enzyme (PGE2 ELISA). Particulars: human (h); 10 μM arachidonic acid, 10-20 min pre-incubation; read-out: COX-2 ID50. As to the method: as §1, §2, §3

Assay [4] has as its target T4, COX-1 (Homo sapiens, UniProt P23219).
T4 construct: A 2.0 kb fragment containing the coding region; made in house; host or cells: SF9 insect cells (baculovirus, pVL1393)
Kind of assay: COX-1 activity in vitro, recombinant human enzyme (PGE2 ELISA). Particulars: human (h); 10 μM arachidonic acid, 10-20 min pre-incubation; read-out: COX-1 ID50. As to the method: as §1, §2, §3

Where only a bound is given, the exact number is not on record here.

T4 sequence (P23219 24-599): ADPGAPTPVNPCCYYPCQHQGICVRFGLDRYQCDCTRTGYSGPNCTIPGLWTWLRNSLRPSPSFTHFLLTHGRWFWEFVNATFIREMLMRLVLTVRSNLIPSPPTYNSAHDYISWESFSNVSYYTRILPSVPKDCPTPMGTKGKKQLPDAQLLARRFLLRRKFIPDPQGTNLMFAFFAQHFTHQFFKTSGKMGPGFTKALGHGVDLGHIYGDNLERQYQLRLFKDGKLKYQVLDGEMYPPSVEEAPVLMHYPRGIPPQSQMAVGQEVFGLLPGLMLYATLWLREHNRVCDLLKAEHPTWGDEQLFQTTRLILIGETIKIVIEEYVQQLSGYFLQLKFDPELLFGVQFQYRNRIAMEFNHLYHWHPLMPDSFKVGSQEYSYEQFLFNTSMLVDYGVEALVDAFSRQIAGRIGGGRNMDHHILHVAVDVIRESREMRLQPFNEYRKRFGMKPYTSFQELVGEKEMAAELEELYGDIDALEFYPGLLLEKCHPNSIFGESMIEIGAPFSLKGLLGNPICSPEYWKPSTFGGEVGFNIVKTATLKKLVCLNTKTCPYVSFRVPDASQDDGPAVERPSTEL

With `CS(=O)(=O)c1ccc(-c2cc(C#N)c(Cl)nc2-c2ccc(F)cc2)cc1` [Example 7, 2-Chloro-6-(4-fluorophenyl)-5-[4-(methylsulfonyl)phenyl]-pyridine-3-carbonitrile], the IC50 at COX-1 [1] is greater than 100000 nM; on COX-2 [2], 100 nM.

As for `CCCCCCOc1nc(-c2ccc(F)cc2)c(-c2ccc(S(C)(=O)=O)cc2)cc1C#N` [Example 18, 6-(4-Fluorophenyl)-2-hexyloxy-5-[4-(methylsulfonyl)phenyl]pyridine-3-carbonitrile], the IC50 on COX-2 [3] was 200 nM; at COX-1 [4], greater than 100000 nM.

Take `CS(=O)(=O)c1ccc(-c2cc(C(N)=O)c(Cl)nc2-c2ccc(F)cc2)cc1` [Example 20, 2-Chloro-6-(4-fluorophenyl)-5-[4-(methylsulfonyl)phenyl]pyridine-3-carboxamide]: the values for the IC50 on COX-1 [1] and on COX-2 [2] were greater than 100000 nM and 26200 nM, respectively.

In the case of `CS(=O)(=O)c1ccc(-c2cc(C(N)=O)cnc2-c2ccc(F)cc2)cc1` [Example 21, 6-(4-Fluorophenyl)-5-[4-(methylsulfonyl)phenyl]pyridine-3-carboxamide], the IC50 on COX-1 [1] is greater than 100000 nM; on COX-2 [2] it was 105000 nM.

Consider `CS(=O)(=O)c1ccc(-c2cc(C#N)cnc2-c2ccc(F)cc2)cc1` [Example 22, 6-(4-Fluorophenyl)-5-[4-(methylsulfonyl)phenyl]pyridine-3-carbonitrile], for which the IC50 on COX-1 [1] was greater than 10000 nM; at COX-2 [2] it was 300 nM.

Consider `COc1nc(-c2ccc(S(C)(=O)=O)cc2)c(-c2ccc(F)cc2)cc1C#N` [Example 23], for which the IC50 at COX-1 [1] is greater than 100000 nM; at COX-2 [2], 300 nM.

For `CCCCCOc1nc(-c2ccc(F)cc2)c(-c2ccc(S(C)(=O)=O)cc2)cc1C#N` [Example 24, 6-(4-Fluorophenyl)-5-[4-(methylsulfonyl)phenyl]-2-pentoxypyridine-3-carbonitrile], the values for the IC50 at COX-2 [3] and on COX-1 [4] were less than 100 nM and greater than 100000 nM, respectively.

As for `CC(C)=CCOc1nc(-c2ccc(F)cc2)c(-c2ccc(S(C)(=O)=O)cc2)cc1C#N` [Example 25], the IC50 at COX-2 [3] is 100 nM; on COX-1 [4], greater than 100000 nM.

Consider `CS(=O)(=O)c1ccc(-c2cc(C#N)c(OCCCC(F)(F)F)nc2-c2ccc(F)cc2)cc1` [Example 27, 6-(4-Fluorophenyl)-5-[4-(methylsulfonyl)phenyl]-2-(4,4,4-trifluorobutoxy)pyridine-3-carbonitrile], for which the IC50 on COX-2 [3] was 200 nM; at COX-1 [4] it was greater than 100000 nM.

For the compound `CCCCOc1nc(-c2ccc(F)cc2)c(-c2ccc(S(N)(=O)=O)cc2)cc1C#N` [Example 28, 4-[6-butoxy-4-cyano-2-(4-Fluorophenyl)-3-pyridine]benzenesulfonamide], the IC50 is less than 100 nM at COX-2 [3] and 200 nM on COX-1 [4].

For `CCCCOc1nc(-c2ccc(F)cc2)c(-c2ccc(S(C)(=O)=O)cc2)cc1CO` [Example 29, 2-Butoxy-6-(4-fluorophenyl)-5-[4-(methylsulfonyl)phenyl]pyridine-3-methanol], the IC50 on COX-2 [3] was less than 100 nM; at COX-1 [4], greater than 100000 nM.

With `CCCCOc1nc(-c2ccc(F)cc2)c(-c2ccc(S(C)(=O)=O)cc2)cc1C(F)F` [Example 31, 2-Butoxy-3-difluoromethyl-6-(4-fluorophenyl)-5-[4-(methylsulfonyl)phenyl]pyridine], the IC50 at COX-2 [3] was less than 100 nM; on COX-1 [4], greater than 100000 nM.

Turning to `CCCCOc1nc(-c2ccc(F)cc2)c(-c2ccc(S(C)(=O)=O)cc2)cc1CN` [Example 32, 2-Butoxy-6-(4-fluorophenyl)-5-[4-(methylsulfonyl)phenyl]pyridine-3-methylamine], the IC50 is 1600 nM on COX-2 [3] and greater than 100000 nM at COX-1 [4].

As for `CCCCOc1nc(-c2ccc(F)cc2)c(-c2ccc(S(C)(=O)=O)cc2)cc1CNC(C)=O` [Example 33], the IC50 on COX-2 [3] was 1400 nM; on COX-1 [4], greater than 100000 nM.

Take `CCCCOc1nc(-c2ccc(F)cc2)c(-c2ccc(S(C)(=O)=O)cc2)cc1CN(C)C` [Example 37, 2-Butoxy-6-(4-fluorophenyl)-N,N-dimethyl-5-[4-(methylsulfonyl)phenyl]pyridine-3-methanamine]: the IC50 was 800 nM at COX-2 [3] and greater than 100000 nM on COX-1 [4].

Take `CCCCOc1nc(-c2ccc(F)cc2)c(-c2ccc(S(C)(=O)=O)cc2)cc1COC(C)=O` [Example 39, 2-Butoxy-6-(4-fluorophenyl)-5-[4-(methylsulfonyl)phenyl]pyridine-3-methanol, acetate]: the IC50 on COX-2 [3] is 100 nM; at COX-1 [4], greater than 100000 nM.

Consider `CCCCOc1nc(-c2ccc(F)cc2)c(-c2ccc(S(C)(=O)=O)cc2)cc1COC(=O)CCC` [Example 40, [2-Butoxy-6-(4-fluorophenyl)-5-[4-(methylsulfonyl)phenyl]pyridin-3-yl]methylbutanoate], for which the IC50 on COX-2 [3] is 100 nM; at COX-1 [4], greater than 100000 nM.

On to `CCCCOc1nc(-c2ccc(F)cc2)c(-c2ccc(S(C)(=O)=O)cc2)cc1COC(=O)C(C)(C)C` [Example 41, [2-Butoxy-6-(4-fluorophenyl)-5-[4-(methylsulfonyl)phenyl]pyridin-3-yl]methyl-2,2-propanoate], for which the IC50 on COX-2 [3] and at COX-1 [4] was greater than 100000 nM each time.

As for `CCCCOc1nc(-c2ccc(F)cc2)c(-c2ccc(S(C)(=O)=O)cc2)cc1CNC` [Example 42, 2-Butoxy-6-(4-fluorophenyl)-N-methyl-5-[4-(methylsulfonyl)phenyl]pyridine-3-methanamine], the IC50 on COX-2 [3] was 3000 nM; at COX-1 [4], greater than 100000 nM.

(Values after patent publication US5916905A, “2,3-substituted pyridines for the treatment of inflammation” (G. D. Searle & Co., priority 1997, dated 1999).)
